# In EPA's ToxValDB 9.5 (doi:10.2903/j.efsa.2010.1555):
# Columns and labels:
# Apis mellifera = settings: acute; oral; unspecified; mortality
# Daphnia magna = settings: chronic/long-term; duration: 21 days; reproduction
# Coturnix japonica = settings: reproduction developmental
# Tagia sp. = settings: acute; duration: 14 days; mortality
# Coturnix coturnix = settings: acute; oral; diet; mortality
# Canidae = settings: chronic; duration: 1 years; oral; Dog Other
# [1] = reproduction developmental, body weight
compound,measurement,setting,value
CCC([O-])=C1C(=O)CC(C(=O)[O-])CC1=O.[Ca+2] (stereo unspecified) [Prohexadione-calcium],LD50,"Anas platyrhynchos; acute, oral, unspecified, mortality",> 2000 mg/kg
same,NOEC,Anas platyrhynchos; reproductive,116 mg/kg-day
same,LC50,"Anas platyrhynchos; short-term, oral, feed, mortality",> 1350 mg/kg-day
same,LD50,"Rattus norvegicus; acute, oral, mortality",> 5000 mg/kg
same,NOAEL,Rattus norvegicus; [1],35 mg/kg-day
same,NOEL,Rattus norvegicus; [1],35 mg/kg-day
same,LC50,"Oncorhynchus mykiss; acute, duration: 96 hours, mortality",> 100 µg/mL
same,NOEC,"Oncorhynchus mykiss; chronic/long-term, duration: 28 days, growth",100 mg/L
same,LD50,Apis mellifera,> 100 µg/piece
same,NOEC,Daphnia magna,100 mg/L
same,NOEC,Coturnix japonica,126 mg/kg-day
same,LC50,Tagia sp.,> 1000 mg/kg
same,LC50,Coturnix coturnix,> 1210 mg/kg-day
same,NOAEL,Canidae,20 mg/kg-day
same,LD50,"Colinus virginianus; acute, oral, mortality",> 2000 mg/kg
same,NOEC,Colinus virginianus; reproduction developmental,48.8 mg/kg-day
